Experimental data published in patent US12084436B2, “Heterocyclic compound” (Takeda Pharmaceutical Company Limited, priority 2019, dated 2024).

Biological target: T1, HDAC6 enzyme (Homo sapiens, UniProt Q9UBN7)
T1 construct: prepared by transducing full length HDAC6 gene into Sf-9 insect cells; GST; purchased SignalChem; host or cells: Sf-9 insect cells
T1 sequence (Q9UBN7 1-1215): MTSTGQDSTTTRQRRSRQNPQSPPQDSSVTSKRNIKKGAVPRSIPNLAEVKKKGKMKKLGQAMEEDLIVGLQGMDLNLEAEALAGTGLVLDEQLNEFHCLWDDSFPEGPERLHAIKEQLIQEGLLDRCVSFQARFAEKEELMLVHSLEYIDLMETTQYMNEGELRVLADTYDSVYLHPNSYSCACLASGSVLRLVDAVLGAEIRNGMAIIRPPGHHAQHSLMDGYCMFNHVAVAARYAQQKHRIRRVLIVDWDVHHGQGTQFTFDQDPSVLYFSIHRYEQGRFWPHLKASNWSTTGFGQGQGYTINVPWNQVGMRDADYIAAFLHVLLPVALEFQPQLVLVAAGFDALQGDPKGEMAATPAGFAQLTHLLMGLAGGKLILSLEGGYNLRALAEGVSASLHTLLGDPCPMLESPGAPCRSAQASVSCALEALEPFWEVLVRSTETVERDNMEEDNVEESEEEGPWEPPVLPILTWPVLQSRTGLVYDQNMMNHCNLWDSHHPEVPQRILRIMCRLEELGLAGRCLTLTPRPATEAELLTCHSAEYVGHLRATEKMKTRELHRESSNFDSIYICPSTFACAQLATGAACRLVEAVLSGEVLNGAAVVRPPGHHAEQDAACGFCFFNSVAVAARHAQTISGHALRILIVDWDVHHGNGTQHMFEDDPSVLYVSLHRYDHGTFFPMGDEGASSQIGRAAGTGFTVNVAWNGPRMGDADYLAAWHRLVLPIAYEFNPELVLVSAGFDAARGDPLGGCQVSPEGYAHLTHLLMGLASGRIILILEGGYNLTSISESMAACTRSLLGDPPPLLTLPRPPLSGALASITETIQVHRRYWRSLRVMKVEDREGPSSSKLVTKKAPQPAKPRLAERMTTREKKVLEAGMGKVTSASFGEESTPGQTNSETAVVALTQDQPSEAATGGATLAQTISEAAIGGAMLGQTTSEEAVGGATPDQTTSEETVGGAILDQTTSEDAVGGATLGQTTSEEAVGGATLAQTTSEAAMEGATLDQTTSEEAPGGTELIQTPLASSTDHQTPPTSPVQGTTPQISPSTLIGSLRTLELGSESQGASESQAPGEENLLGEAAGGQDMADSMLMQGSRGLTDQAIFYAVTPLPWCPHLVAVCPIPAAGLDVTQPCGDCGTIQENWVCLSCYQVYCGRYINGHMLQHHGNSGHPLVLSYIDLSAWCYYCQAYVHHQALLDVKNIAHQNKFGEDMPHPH
Test: HDAC6 enzyme inhibitory assay (HDAC-Glo I/II Assay kit, luminescence)
Assay type: biochemical
Conditions: 10 μM test compound, wells without enzyme = 100% inhibition; for inhibition at 10 µM: read-out: HDAC6 inhibitory rate (%) (10 μM)
How it was run: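 Full-length human HDAC6, GST-purified from Sf-9 cells, was preincubated with compound for 60 min at room temperature in Tris-HCl pH 7.5 buffer with glutathione and Tween-20. Substrate-developer was then added, and luminescence was read after 20 min at room temperature. Inhibition was expressed relative to no-enzyme wells, taken as 100% inhibition.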

SMILES | inhibition at 10 µM | HDAC6 inhibitory rate (%) (10 μM)
Cc1nc(Cn2ccnc2-c2cc(F)cc(-c3nnc(C(F)F)o3)c2)co1 [Example 57a, 2-(difluoromethyl)-5-(3-fluoro-5-{1-[(2-methyl-1,3-oxazol-4-yl)methyl]-1H-imidazol-2-yl}phenyl)-1,3,4-oxadiazole] | 97% | 
Fc1cc(-c2nnc(C(F)F)o2)cc(-c2nccn2CC2CCCOC2)c1 (centres unmarked) [Example 29a, 2-(difluoromethyl)-5-(3-fluoro-5-{1-[(oxan-3-yl)methyl]-1H-imidazol-2-yl}phenyl)-1,3,4-oxadiazole] | 99% | 
CN(Cc1ccc2nccn2c1)N1Cc2ccc(-c3nnc(C(F)F)o3)cc2C1=O [Example 45c, 6-[5-(difluoromethyl)-1,3,4-oxadiazol-2-yl]-2-{[(imidazo[1,2-a]pyridin-6-yl)methyl](methyl)amino}-2,3-dihydro-1H-isoindol-1-one] | 99% | 
COCC1(c2ccccc2)Oc2ccc(-c3nnc(C(F)F)o3)cc2C(=O)N1C (centres unmarked) [Example 51b, 6-[5-(difluoromethyl)-1,3,4-oxadiazol-2-yl]-2-(methoxymethyl)-3-methyl-2-phenyl-2,3-dihydro-4H-1,3-benzoxazin-4-one] | 99% | 
COc1cc(CN(C)N2Cc3ccc(-c4nnc(C(F)F)o4)cc3C2=O)cc(OC)c1 [Example 63c, 6-[5-(difluoromethyl)-1,3,4-oxadiazol-2-yl]-2-{[(3,5-dimethoxyphenyl)methyl](methyl)amino}-2,3-dihydro-1H-isoindol-1-one] | 101% | 
CN1C(=O)c2cc(-c3nnc(C(F)F)o3)ccc2CC1c1ccc(F)cc1 (single isomer, unassigned; isomer 2) [Example 42b, 7-[5-(difluoromethyl)-1,3,4-oxadiazol-2-yl]-3-(4-fluorophenyl)-2-methyl-3,4-dihydroisoquinolin-1(2H)-one (optical Isomer 2)] |  | 93%
O=C1NN(c2ccc(F)c(Cl)c2)Cc2ncc(-c3nnc(C(F)F)o3)cc21 [Example 35b, 7-(3-chloro-4-fluorophenyl)-3-[5-(difluoromethyl)-1,3,4-oxadiazol-2-yl]-7,8-dihydropyrido[2,3-d]pyridazin-5(6H)-one] | 100% | 
CN1C(=O)c2cc(-c3nnc(C(F)F)o3)cnc2CC1(C)c1ccc(F)cc1 (centres unmarked) [Example 25b, 3-[5-(difluoromethyl)-1,3,4-oxadiazol-2-yl]-7-(4-fluorophenyl)-6,7-dimethyl-7,8-dihydro-1,6-naphthyridin-5(6H)-one] | 100% | 
Fc1cc(-c2nnc(C(F)F)o2)cc(-c2ncccc2OCC2CCOCC2)c1 [Example 7a, 2-{3-[5-(difluoromethyl)-1,3,4-oxadiazol-2-yl]-5-fluorophenyl]-3-[(oxan-4-yl)methoxy]pyridine] | 100% | 
CCN1C(=O)c2cc(-c3nnc(C(F)F)o3)ccc2OC1(C)c1ccc(F)cc1 (centres unmarked) [Example 45b, 6-[5-(difluoromethyl)-1,3,4-oxadiazol-2-yl]-3-ethyl-2-(4-fluorophenyl)-2-methyl-2,3-dihydro-4H-1,3-benzoxazin-4-one] | 100% | 
CN1CCC(COc2cccnc2-c2cc(F)cc(-c3nnc(C(F)F)o3)c2)CC1=O (centres unmarked) [Example 14a, 4-{[(2-{3-[5-(difluoromethyl)-1,3,4-oxadiazol-2-yl]-5-fluorophenyl}pyridin-3-yl)oxy]methyl}-1-methylpiperidin-2-one] | 97% | 
COc1ccc(C2(C)Oc3ccc(-c4nnc(C(F)F)o4)cc3C(=O)N2C)cc1 (centres unmarked) [Example 18b, 6-[5-(difluoromethyl)-1,3,4-oxadiazol-2-yl]-2-(4-methoxyphenyl)-2,3-dimethyl-2,3-dihydro-4H-1,3-benzoxazin-4-one] | 99% | 
Cc1ccc(C2(C)Oc3ccc(-c4nnc(C(F)F)o4)cc3C(=O)N2C)cc1 (centres unmarked) [Example 22b, 6-[5-(difluoromethyl)-1,3,4-oxadiazol-2-yl]-2,3-dimethyl-2-(4-methylphenyl)-2,3-dihydro-4H-1,3-benzoxazin-4-one] | 100% | 
FC(F)c1nnc(-c2ccnc(-c3nccn3Cc3ccccn3)c2)o1 [Example 3a, 4-[5-(difluoromethyl)-1,3,4-oxadiazol-2-yl]-2-{1-[(pyridin-2-yl)methyl]-1H-imidazol-2-yl}pyridine] | 99% | 
O=C(OCC(F)F)N(Cc1ccc(F)cc1)N1Cc2ccc(-c3nnc(C(F)F)o3)cc2C1=O [Example 16c, 2,2-difluoroethyl {6-[5-(difluoromethyl)-1,3,4-oxadiazol-2-yl]-1-oxo-1,3-dihydro-2H-isoindol-2-yl}[(4-fluorophenyl)methyl]carbamate] | 100% | 
CN(Cc1cccc(N2CCOCC2)c1)N1Cc2ccc(-c3nnc(C(F)F)o3)cc2C1=O [Example 61c, 6-[5-(difluoromethyl)-1,3,4-oxadiazol-2-yl]-2-(methyl{[3-(morpholin-4-yl)phenyl]methyl}amino)-2,3-dihydro-1H-isoindol-1-one] | 99% | 
Cn1ccc(OCc2ccccc2)c(-c2cc(F)cc(-c3nnc(C(F)F)o3)c2)c1=O [Example 35a, 4-(benzyloxy)-3-{3-[5-(difluoromethyl)-1,3,4-oxadiazol-2-yl]-5-fluorophenyl}-1-methylpyridin-2(1H)-one] | 98% | 
Cc1noc(Cn2ccnc2-c2cc(F)cc(-c3nnc(C(F)F)o3)c2)n1 [Example 56a, 5-[(2-{3-[5-(difluoromethyl)-1,3,4-oxadiazol-2-yl]-5-fluorophenyl}-1H-imidazol-1-yl)methyl]-3-methyl-1,2,4-oxadiazole] | 99% | 
O=C(OCc1ccccn1)N(Cc1ccc(F)cc1)N1Cc2ccc(-c3nnc(C(F)F)o3)cc2C1=O [Example 25c, (pyridin-2-yl)methyl {6-[5-(difluoromethyl)-1,3,4-oxadiazol-2-yl]-1-oxo-1,3-dihydro-2H-isoindol-2-yl}[(4-fluorophenyl)methyl]carbamate] | 99% | 
O=C1NN(c2ccc(F)cc2)Cc2ncc(-c3nnc(C(F)F)o3)cc21 [Example 3b, 3-[5-(difluoromethyl)-1,3,4-oxadiazol-2-yl]-7-(4-fluorophenyl)-7,8-dihydropyrido[2,3-d]pyridazin-5(6H)-one] | 101% | 
Fc1ccc(Cc2ccnn2-c2cc(-c3nnc(C(F)F)o3)ccn2)cc1 [Example 73a, 4-[5-(difluoromethyl)-1,3,4-oxadiazol-2-yl]-2-[5-[(4-fluorophenyl)methyl]-1H-pyrazol-1-yl}pyridine] | 100% | 
Cn1ccc(OC2CCOCC2)c(-c2cc(F)cc(-c3nnc(C(F)F)o3)c2)c1=O [Example 53a, 3-{3-[5-(difluoromethyl)-1,3,4-oxadiazol-2-yl]-5-fluorophenyl}-1-methyl-4-[(oxan-4-yl)oxy]pyridin-2(1H)-one] | 100% | 
CN1C(=O)c2cc(-c3nnc(C(F)F)o3)cnc2CC1(C)c1ccc(F)cc1 (single isomer, unassigned) [Example 1b, 3-[5-(difluoromethyl)-1,3,4-oxadiazol-2-yl]-7-(4-fluorophenyl)-6,7-dimethyl-7,8-dihydro-1,6-naphthyridin-5(6H)-one] |  | 100%
CN1C(=O)c2cc(-c3nnc(C(F)F)o3)cnc2CC1(C)c1ccc(F)c(F)c1 (single isomer, unassigned; isomer 1) [Example 39b, 3-[5-(difluoromethyl)-1,3,4-oxadiazol-2-yl]-7-(3,4-difluorophenyl)-6,7-dimethyl-7,8-dihydro-1,6-naphthyridin-5(6H)-one (optical isomer 1)] |  | 76%
Cc1ccccc1Cn1ccnc1-c1cc(-c2nnc(C(F)F)o2)ccn1 [Example 86a, 4-[5-(difluoromethyl)-1,3,4-oxadiazol-2-yl]-2-{1-[(2-methylphenyl)methyl]-1H-imidazol-2-yl}pyridine] | 100% | 
O=C1c2cc(-c3nnc(C(F)F)o3)ccc2CN1N(CCC1CCOCC1)Cc1ccc(F)cc1 [Example 21c, 6-[5-(difluoromethyl)-1,3,4-oxadiazol-2-yl]-2-{[(4-fluorophenyl)methyl][2-(oxan-4-yl)ethyl]amino}-2,3-dihydro-1H-isoindol-1-one] | 99% | 
